In paper PMC5539244, “2-Oxoesters: A Novel Class of Potent and Selective Inhibitors of Cytosolic Group IVA Phospholipase A2” (Scientific Reports, 2017):
Several values for one entry are separate records, joined by “and”; a condition that tells them apart may be missing. Equal values may be shown once. Read-outs that look alike come from different tables or passages of the source.

Key:
[1] = molecular target: T1, recombinant human GIVA cPLA2 (Homo sapiens, UniProt P47712); test: mixed micelle assay, GIVA cPLA2 inhibition; type: biochemical; conditions: for inhibition at 0.091 mole fraction: read-out: GIVA cPLA2 % Inhibition; for GIVA cPLA2 X I(50): mole fraction of inhibitor in total substrate interface giving 50% inhibition
T1 sequence (P47712 1-749): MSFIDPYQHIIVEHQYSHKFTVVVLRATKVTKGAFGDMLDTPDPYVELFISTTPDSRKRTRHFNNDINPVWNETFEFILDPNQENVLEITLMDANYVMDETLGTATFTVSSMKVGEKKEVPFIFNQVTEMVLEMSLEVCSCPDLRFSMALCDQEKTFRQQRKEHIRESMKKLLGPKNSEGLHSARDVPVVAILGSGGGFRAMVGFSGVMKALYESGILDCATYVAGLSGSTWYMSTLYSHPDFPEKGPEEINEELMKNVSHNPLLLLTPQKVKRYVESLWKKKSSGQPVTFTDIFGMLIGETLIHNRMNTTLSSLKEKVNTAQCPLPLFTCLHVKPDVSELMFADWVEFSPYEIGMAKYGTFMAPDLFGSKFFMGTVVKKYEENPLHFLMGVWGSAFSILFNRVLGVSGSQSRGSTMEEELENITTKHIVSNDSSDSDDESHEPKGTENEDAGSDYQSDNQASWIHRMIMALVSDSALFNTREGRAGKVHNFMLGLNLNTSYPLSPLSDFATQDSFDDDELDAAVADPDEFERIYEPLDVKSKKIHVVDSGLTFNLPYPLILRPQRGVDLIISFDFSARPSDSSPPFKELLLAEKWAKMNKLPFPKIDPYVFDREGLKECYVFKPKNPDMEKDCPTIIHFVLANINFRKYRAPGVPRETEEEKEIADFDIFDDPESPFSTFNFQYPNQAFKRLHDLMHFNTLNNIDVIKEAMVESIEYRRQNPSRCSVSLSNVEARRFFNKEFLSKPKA

human GVIA iPLA2 = molecular target: T2, human GVIA iPLA2 (Homo sapiens, UniProt O60733); test: mixed micelle assay, GVIA iPLA2 inhibition; type: biochemical; conditions: for inhibition at 0.091 mole fraction: read-out: GVIA iPLA2 % Inhibition
T2 sequence (O60733 1-806): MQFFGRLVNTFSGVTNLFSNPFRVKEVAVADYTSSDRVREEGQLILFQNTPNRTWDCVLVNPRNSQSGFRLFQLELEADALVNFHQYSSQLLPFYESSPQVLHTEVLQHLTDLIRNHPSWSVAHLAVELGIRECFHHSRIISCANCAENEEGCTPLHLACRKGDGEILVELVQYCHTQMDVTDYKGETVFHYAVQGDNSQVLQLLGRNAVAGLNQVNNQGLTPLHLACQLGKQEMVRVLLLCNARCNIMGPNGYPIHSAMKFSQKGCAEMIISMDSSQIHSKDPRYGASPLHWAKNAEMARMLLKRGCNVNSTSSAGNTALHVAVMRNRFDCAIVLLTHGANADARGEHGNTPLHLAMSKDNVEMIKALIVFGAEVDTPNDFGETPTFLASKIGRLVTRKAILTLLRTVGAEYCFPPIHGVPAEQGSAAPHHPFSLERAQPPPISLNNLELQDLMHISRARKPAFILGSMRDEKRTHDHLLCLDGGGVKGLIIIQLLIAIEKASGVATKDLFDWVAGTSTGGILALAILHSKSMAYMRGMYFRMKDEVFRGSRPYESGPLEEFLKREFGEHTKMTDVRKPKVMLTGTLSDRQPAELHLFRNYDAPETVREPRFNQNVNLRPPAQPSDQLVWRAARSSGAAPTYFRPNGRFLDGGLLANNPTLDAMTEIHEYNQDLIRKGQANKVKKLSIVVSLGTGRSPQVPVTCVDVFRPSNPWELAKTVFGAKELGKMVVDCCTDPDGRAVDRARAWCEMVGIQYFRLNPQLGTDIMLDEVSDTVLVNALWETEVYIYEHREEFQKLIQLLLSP

human GV sPLA2 = molecular target: T3, human GV sPLA2 (Homo sapiens, UniProt P39877); test: mixed micelle assay, GV sPLA2 inhibition; type: biochemical; conditions: read-out: GV sPLA2 % Inhibition
T3 sequence (P39877 21-138): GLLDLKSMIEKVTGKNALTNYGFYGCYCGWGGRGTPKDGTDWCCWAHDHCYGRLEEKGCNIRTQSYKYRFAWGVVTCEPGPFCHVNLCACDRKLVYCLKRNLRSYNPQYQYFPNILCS

logP measured by HPLC = type: physicochemical
RAW264.7 macrophages [2] = test: KLA-elicited eicosanoid production in macrophages (LC-MS/MS); type: cell-based, murine; conditions: 5 μM inhibitor 1 h before KLA 100 ng/mL; supernatant at 24 h
Procedure: It is well established that the toll-like receptor 4 (TLR4)-specific agonist Kdo2-lipid A (KLA) leads to GIVA cPLA2 activation, [52] and release of arachidonic acid in macrophages that is then converted into eicosanoids by cyclooxygenase-2[53]–[55]. […] The high levels of PGD2 compared to background in culture supernatants following KLA stimulation makes it an ideal marker for GIVA cPLA2 activity in macrophages. […] RAW264.7 macrophages were pre-treated with vehicle control, DMSO or 17f (5 μM) for one hour prior to stimulation with KLA (100 ng/mL). Culture supernatants were collected after 24 hours for eicosanoid quantification by LC-MS/MS.
Figure 8 Inhibitor 17f inhibits KLA-elicited prostaglandin D2 biosynthesis by macrophages. […] Supernatants were collected 24 hr following stimulation for eicosanoid quantification.
RAW264.7 murine macrophage cells (ATCC #TIB-71) were maintained at 37 °C, 5% CO2 in DMEM (Life Technologies 11995–065) containing 10% FBS (Gemini), 100 U/mL penicillin/streptomycin, 1 mM sodium pyruvate and 4 mM L-glutamine. […] Supernatants were collected at 24 hours for eicosanoid quantification. […] Online UPLC-electrospray ionization MS/MS quantitation of eicosanoids was performed on a QTRAP 6500 hybrid quadrupole/linear ion-trap mass spectrometer (AB Sciex) via multiple reaction monitoring (MRM) in negative ion mode. […]

RAW264.7 macrophages [3] = test: cellular toxicity by trypan blue exclusion; type: cell-based, murine; conditions: any concentration tested, data not shown
[4] = molecular target: T1, recombinant human GIVA cPLA2; set-up: method as in PMID 12086476, PMID 15214789; conditions: mixed micelle assay; cited from earlier work
[5] = at 0.091 mole fraction of inhibitor, mixed micelles

## CCCCCCCCCCCCCCC(O)C(=O)OCCCC(=O)O (stereo not drawn) [compound 20, 4-((2-Hydroxyhexadecanoyl)oxy)butanoic acid]
[1]
  inhibition at 0.091 mole fraction: < 25%
Human GVIA iPLA2
  inhibition at 0.091 mole fraction: < 25%
Human GV sPLA2
  inhibition at 0.091 mole fraction: 41 ± 0.2%

## CCOC(=O)CCCOC(=O)C(=O)CCCCc1ccccc1 [compound 19, 4-Ethoxy-4-oxobutyl 2-oxo-6-phenylhexanoate]
[1]; [5]
  inhibition at 0.091 mole fraction: 27.3 ± 4.8%
Human GVIA iPLA2
  inhibition at 0.091 mole fraction: < 25%
Human GV sPLA2; [5]
  inhibition at 0.091 mole fraction: < 25%

## O=C(O)CCCCOC(=O)C(=O)CCCc1ccc(-c2ccccc2)cc1 [17h, 5-((5-([1,1′-Biphenyl]-4-yl)-2-oxopentanoyl)oxy)pentanoic acid]
[1]; [5]
  inhibition at 0.091 mole fraction: > 95%
[1]
  GIVA cPLA2 X I(50): 0.0010 ± 0.0003 mole fraction
Human GVIA iPLA2; [5]
  inhibition at 0.091 mole fraction: 94 ± 1.4%
Human GV sPLA2
  inhibition at 0.091 mole fraction: < 25%

## CCCCCCCCCCCCCCC(=O)C(=O)OCCCC(=O)O [17a, 4-((2-Oxohexadecanoyl)oxy)butanoic acid]
[1]
  GIVA cPLA2 X I(50): 0.00008 ± 0.00001 mole fraction
  inhibition at 0.091 mole fraction: > 95%
Human GVIA iPLA2
  inhibition at 0.091 mole fraction: < 25%
Human GV sPLA2
  inhibition at 0.091 mole fraction: < 25%
other
  melting point: 76 to 78 °C

## CCCCCCCCCCCCCCC(=O)C(=O)OCCCCC(=O)O [17e, 5-((2-Oxohexadecanoyl)oxy)pentanoic acid]
[1]; [5]
  inhibition at 0.091 mole fraction: > 95%
[1]
  GIVA cPLA2 X I(50): 0.00007 ± 0.00001 mole fraction
Human GVIA iPLA2; [5]
  inhibition at 0.091 mole fraction: 25%
Human GV sPLA2
  inhibition at 0.091 mole fraction: < 25%

## O=C(O)CCCCOC(=O)C(=O)CCCCc1ccc(-c2ccccc2)cc1 [17f, 5-((6-([1,1′-Biphenyl]-4-yl)-2-oxohexanoyl)oxy)pentanoic acid]
[1]; addition of the carboxylic moiety
  increase in potency compared to GK174 on GIVA cPLA2: 10 fold
[1]
  GIVA cPLA2 X I(50): 0.000078 ± 0.00001 mole fraction
  inhibition at 0.091 mole fraction: > 95%
Human GV sPLA2
  inhibition at 0.091 mole fraction: < 25%
logP measured by HPLC
  chromatographic logP: 3.5
RAW264.7 macrophages [2]
  decrease in KLA-elicited PGD2 production: over 50%
RAW264.7 macrophages [3]
  cellular toxicity: did not show cellular toxicity

## CC(C)(C)OC(=O)CCCOC(=O)C(=O)CCCCc1ccccc1 [16c, 4-(tert-Butoxy)-4-oxobutyl 2-oxo-6-phenylhexanoate]
[1]; [5]
  inhibition at 0.091 mole fraction: < 25%
Human GVIA iPLA2
  inhibition at 0.091 mole fraction: < 25%
Human GV sPLA2; [5]
  inhibition at 0.091 mole fraction: < 25%

## O=C1NC(=O)/C(=C/c2ccc(C(=O)NC[C@@H]3C[C@@H](SC(c4ccccc4)(c4ccccc4)c4ccccc4)CN3C(=O)c3ccccc3C(=O)c3ccc(F)cc3F)cc2)S1 [compound 1, pyrrophenone]
[4]
  GIVA cPLA2 X I(50): 0.002 mole fraction

## CCCCCCCCCCCCCCC(=O)C(=O)O [12e, 2-Oxohexadecanoic acid]
[1]; [5]
  inhibition at 0.091 mole fraction: 78.4 ± 3.5%
Human GVIA iPLA2
  inhibition at 0.091 mole fraction: < 25%
Human GV sPLA2; [5]
  inhibition at 0.091 mole fraction: < 25%

## CCCCCCOc1ccc(CCCCC(=O)C(=O)OCCCC(=O)O)cc1 [17b, 4-((6-(4-(Hexyloxy)phenyl)-2-oxohexanoyl)oxy)butanoic acid]
[1]
  GIVA cPLA2 X I(50): 0.00289 ± 0.00043 mole fraction
  inhibition at 0.091 mole fraction: > 95%
Human GVIA iPLA2
  inhibition at 0.091 mole fraction: < 25%
Human GV sPLA2
  inhibition at 0.091 mole fraction: 52.6 ± 5.3%

## COC(=O)C(=O)CCCCc1ccc2ccccc2c1 [10b, Methyl 6-(naphthalen-2-yl)-2-oxohexanoate]
[1]; [5]
  inhibition at 0.091 mole fraction: 55 ± 4%
Human GVIA iPLA2; [5]
  inhibition at 0.091 mole fraction: > 95%
Human GVIA iPLA2; mole fraction of inhibitor in total substrate interface giving 50% inhibition
  GVIA iPLA2 X I(50): 0.0052 mole fraction and 0.0052 ± 0.0007 mole fraction
Human GV sPLA2; [5]
  inhibition at 0.091 mole fraction: < 25%

## O=C(O)CCCOC(=O)C(=O)CCCc1ccc(-c2ccccc2)cc1 [17g, 4-((5-([1,1′-Biphenyl]-4-yl)-2-oxopentanoyl)oxy)butanoic acid]
[1]
  GIVA cPLA2 X I(50): 0.0065 ± 0.002 mole fraction
  inhibition at 0.091 mole fraction: > 95%
Human GVIA iPLA2
  inhibition at 0.091 mole fraction: 84 ± 1.5%
Human GV sPLA2
  inhibition at 0.091 mole fraction: < 25%
other
  melting point: 58 to 60 °C

## CCCCCCCCCCOc1ccc(OCC(=O)Cn2cc(C(=O)OC)c3cc(C(=O)O)ccc32)cc1 [compound 4, reference compound]
[1]
  GIVA cPLA2 X I(50): 0.00008 mole fraction and 0.00008 ± 0.000005^c mole fraction
  inhibition at 0.091 mole fraction: > 95%

## CCCCCCCCCCCCCCC(=O)C(=O)OC [10e, Methyl 2-oxohexadecanoate]
[1]; [5]
  inhibition at 0.091 mole fraction: 68.2 ± 2.7%
Human GVIA iPLA2
  inhibition at 0.091 mole fraction: 69.4 ± 12.2%
Human GV sPLA2; [5]
  inhibition at 0.091 mole fraction: 27.5 ± 0.9%

## O=C(O)CCCOC(=O)C(=O)CCCCc1ccc(-c2ccccc2)cc1 [17d, 4-(6-(Biphenyl-4-yl)-2-oxohexanoyloxy)butanoic acid]
[1]
  GIVA cPLA2 X I(50): 0.00068 mole fraction and 0.00068 ± 0.00007 mole fraction
  inhibition at 0.091 mole fraction: > 95%
[1]; ratio of X I(50) values
  times less potent than 17a on GIVA cPLA2: eight
Human GVIA iPLA2
  inhibition at 0.091 mole fraction: < 25%
Human GV sPLA2
  inhibition at 0.091 mole fraction: < 25%
other
  melting point: 101 to 103 °C

## COC(=O)C(=O)CCCCc1ccccc1 [10a, Methyl 2-oxo-6-phenylhexanoate]
[1]; [5]
  inhibition at 0.091 mole fraction: < 25%
Human GVIA iPLA2; [5]
  inhibition at 0.091 mole fraction: 72 ± 4%
Human GV sPLA2; [5]
  inhibition at 0.091 mole fraction: < 25%
